Test system: striatum of normal Sprague-Dawley (SD) rats
Experiment: Cytotoxic tissue response after CED in rat striatum, T2-weighted and diffusion-weighted MRI 24 hours post treatment
Procedure: The resultant solution was infused into the striatum of normal Sprague-Dawley (SD) rats (males, 250-300 grams). T1-weighted MR images were acquired immediately post treatment to assess the extent of convection. Additionally, T2-weighted and diffusion-weighted MR images were acquired 24 hours post treatment to assess the response of the tissue and its correlation to the extent of convection.
In order to obtain a wide range in volumes of distribution, the infusion times were varied between 17 to 60 minutes. 13 rats were treated with Carboplatin (4 mg/ml, 17 minutes infusion). In order to obtain a wide range in volumes of distributions, in 6 out of those, the composition viscosity was increased by adding sucrose to the solution prior to infusion (Carboplatin 4 mg/ml, sucrose concentration-12%).
Early assessment of tissue response was performed using diffusion-weighted and T2-weighted MR images. The diffusion-weighted images were obtained by acquiring conventional T2-weighted images with the addition of diffusion-weighting gradients that filter out the signal from high mobility water molecules and sensitize the MR images to molecular diffusion/mobility [Stejskal et al. supra]. Regions of accumulated liquids or severe necrosis appear dark in diffusion-weighted MRI, while regions of slow water accumulation, such as in the case of intracellular water accumulation or inflammation, appear brighter.
The diffusion-weighted and T2-weighted MR images were obtained by a General Electric™ 3.0 T MRI machine with 10.4M 1× operating system, gradients intensity of up to 4.3 Gauss/cm and line scan diffusion-weighted imaging [Gudbjartsson et al., “Line scan diffusion imaging”, Magn. Reson. Med. 36:509-519, 1996] acquisition software package. Specially designed animal volume coils of 5 cm diameter were used for data acquisition.
The T2-weighted fast spin echo (FSE) MR images were acquired with: 256×128 matrix, FOV=12×9 cm^2, TR=3000 ms, TE=90 ms, and 2 mm slices with 0.5 mm gap. […]

SMILES | enhancement in diffusion-weighted MR images (cases of efficient convection, 24 hours post treatment) | histology of en block-resected lesion from rat brain (rat, in vivo) | tissue toxicity (rat, in vivo)
N.N.O=C([O-])C1(C(=O)[O-])CCC1.[Pt+2] [Carboplatin] | significant enhancement |  | 
CC(=O)O[C@H]1C(=O)[C@@]2(C)[C@H]([C@H](OC(=O)c3ccccc3)[C@]3(O)C[C@H](OC(=O)[C@H](O)[C@@H](NC(=O)c4ccccc4)c4ccccc4)C(C)=C1C3(C)C)[C@]1(OC(C)=O)CO[C@@H]1C[C@@H]2O [Taxol®, Taxol] |  | Severe damage covering most of the striatum is seen with widespread necrosis and early gliotic changes | severe tissue toxicity

Reference: patent US8391959B2, “Composition for improving efficiency of drug delivery” (Tel HaShomer Medical Research Infrastructure and Services …, priority 2004, dated 2013)
